Our source for the IC50 values is US20210087206A1, “MACROCYCLIC KINASE INHIBITORS AND THEIR USE” (TURNING POINT THERAPEUTICS, INC., priority 2017, published 2021).

One experiment concerns KM12 (TPM3-TRKA). Briefly: Cell proliferation assay (CellTiter-Glo). It is filed as cell-based. The note with it: Homo sapiens, anti-cell proliferation, 72 hours. In short, it runs like this: (§1)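 Cells seeded 24 h, then exposed to compounds for 72 h at 37° C., 5% CO2. Proliferation read by CellTiter-Glo luminescent ATP detection; IC50 from dose-response fits.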
Another experiment has as its system KG-1 cell (OP2-FGFR1). Briefly: Cell proliferation assay (CellTiter-Glo). It counts as cell-based. The note with it: Homo sapiens, anti-cell proliferation, 72 hours. The procedure, abridged:
as §1

A further experiment deals with T1, BaF3 EML4-ALK (Homo sapiens, UniProt Q9UM73).
T1 construct: The EML4-ALK gene (variant 1) was synthesized at GenScript and cloned into pCDH-CMV-MCS-EF1-Puro plasmid (System Biosciences, Inc); fused on or other part: EML4 N-terminal part (variant 1: exons 1-13, with the coiled-coil that oligomerises the fusion) fused to the intracellular part of ALK, which contains the kinase domain; Q9HC35 (Echinoderm microtubule-associated protein-like 4)
Briefly: Cell proliferation assay (CellTiter-Glo). It counts as cell-based. As to conditions: anti-cell proliferation, 72 hours. The procedure, abridged: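 Ba/F3 cells were lentivirally transduced with EML4-ALK variant 1 and selected for puromycin resistance and IL-3-independent growth. Proliferation was measured by CellTiter-Glo ATP luminescence to give IC50.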

In a further experiment the target is T2, ALK (L1196M) (Homo sapiens, UniProt Q9UM73, L1196M).
T2 construct: purchased Reaction Biology Corporation
The experiment can be described thus: Biochemical kinase assay (Reaction Biology, 33P ATP). As to conditions: 10 μM ATP. The method, then:
(§2) Biochemical Kinase Assay Method
(§3) The biochemical kinase assay was performed at Reaction Biology Corporation (www.reactionbiology.com, Malvern, Pa.) following the procedures described in the reference (Anastassiadis T, et al Nat Biotechnol. 2011, 29, 1039). Specific kinase/substrate pairs along with required cofactors were prepared in reaction buffer; 20 mM Hepes pH 7.5, 10 mM MgC2, 1 mM EGTA, 0.02% Brij35, 0.02 mg/ml BSA, 0.1 mM Na3VO4, 2 mM DTT, 1% DMSO. Compounds were delivered into the reaction, followed ˜20 min later by addition of a mixture of ATP (Sigma, St. Louis Mo.) and ^33P ATP (Perkin Elmer, Waltham Mass.) to a final concentration of 10 μM. Reactions were carried out at room temperature for 120 min, followed by spotting of the reactions onto P81 ion exchange filter paper (Whatman Inc., Piscataway, N.J.). Unbound phosphate was removed by extensive washing of filters in 0.75% phosphoric acid. […] IC50 values and curve fits were obtained using Prism (GraphPad Software).

For another experiment, the target named is T3, FGFR1 (Homo sapiens, UniProt P11362).
T3 construct: purchased Reaction Biology Corporation
The description is as above. As to conditions: 10 μM ATP. The procedure:
as §2, §3

For the next experiment, the target named is T4, ROS1 (Homo sapiens, UniProt P08922).
T4 construct: purchased Reaction Biology Corporation
Described as above. The note with it: 10 μM ATP. The method, then: as §2, §3

The target of a further experiment is T5, ALK (Homo sapiens, UniProt Q9UM73).
T5 construct: purchased Reaction Biology Corporation
The description is as above. The note with it: 10 μM ATP. The procedure: as §2, §3

A further experiment addresses T6, FGFR3 (Homo sapiens, UniProt P22607).
T6 construct: purchased Reaction Biology Corporation
The description is as above. The note with it: 10 μM ATP. The method, then: as §2, §3

In a further experiment the target is T7, ROS1 (G2032R) (Homo sapiens, UniProt P08922, G2032R).
T7 construct: purchased Reaction Biology Corporation
Described as above. The note with it: 10 μM ATP. The procedure:
as §2, §3

The next experiment deals with T8, FGFR4 (Homo sapiens, UniProt P22455).
T8 construct: purchased Reaction Biology Corporation
Described as above. The note with it: 10 μM ATP. The procedure:
as §2, §3

For the next experiment, the target named is T9, ALK (G1202R) (Homo sapiens, UniProt Q9UM73, G1202R).
T9 construct: purchased Reaction Biology Corporation
The experiment is described as above. The note with it: 10 μM ATP. The method, then: as §2, §3

For a further experiment, the target named is T10, FGFR1(V561M) (Homo sapiens, UniProt P11362, V561M).
T10 construct: purchased Reaction Biology Corporation
The experiment is described as above. As to conditions: 10 μM ATP. The procedure:
as §2, §3

The target in a further experiment is T11, FGFR2 (Homo sapiens, UniProt P21802).
T11 construct: purchased Reaction Biology Corporation
The description is as above. As to conditions: 10 μM ATP. The method, then: as §2, §3

T8 sequence (P22455 22-802): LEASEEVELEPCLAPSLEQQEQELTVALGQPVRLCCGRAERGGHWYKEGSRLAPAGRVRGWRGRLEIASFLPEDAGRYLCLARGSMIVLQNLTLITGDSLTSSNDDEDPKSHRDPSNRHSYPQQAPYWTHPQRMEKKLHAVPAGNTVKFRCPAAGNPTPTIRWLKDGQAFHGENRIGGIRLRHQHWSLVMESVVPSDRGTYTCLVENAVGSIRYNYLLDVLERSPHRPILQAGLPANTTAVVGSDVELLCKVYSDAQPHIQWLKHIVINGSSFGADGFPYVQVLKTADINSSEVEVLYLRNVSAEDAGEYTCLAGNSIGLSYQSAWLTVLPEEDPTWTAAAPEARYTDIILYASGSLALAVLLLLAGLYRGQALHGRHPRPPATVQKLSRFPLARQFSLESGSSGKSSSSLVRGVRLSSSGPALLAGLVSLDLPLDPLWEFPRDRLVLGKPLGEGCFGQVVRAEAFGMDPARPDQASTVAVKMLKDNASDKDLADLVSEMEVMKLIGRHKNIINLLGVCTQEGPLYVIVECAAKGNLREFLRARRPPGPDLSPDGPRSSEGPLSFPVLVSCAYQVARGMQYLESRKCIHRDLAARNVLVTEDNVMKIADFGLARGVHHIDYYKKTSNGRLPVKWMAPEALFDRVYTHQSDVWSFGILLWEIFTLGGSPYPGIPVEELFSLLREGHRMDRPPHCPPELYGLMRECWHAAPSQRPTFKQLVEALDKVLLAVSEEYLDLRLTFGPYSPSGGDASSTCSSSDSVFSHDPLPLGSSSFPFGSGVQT
T10 sequence (P11362 22-822 V561M): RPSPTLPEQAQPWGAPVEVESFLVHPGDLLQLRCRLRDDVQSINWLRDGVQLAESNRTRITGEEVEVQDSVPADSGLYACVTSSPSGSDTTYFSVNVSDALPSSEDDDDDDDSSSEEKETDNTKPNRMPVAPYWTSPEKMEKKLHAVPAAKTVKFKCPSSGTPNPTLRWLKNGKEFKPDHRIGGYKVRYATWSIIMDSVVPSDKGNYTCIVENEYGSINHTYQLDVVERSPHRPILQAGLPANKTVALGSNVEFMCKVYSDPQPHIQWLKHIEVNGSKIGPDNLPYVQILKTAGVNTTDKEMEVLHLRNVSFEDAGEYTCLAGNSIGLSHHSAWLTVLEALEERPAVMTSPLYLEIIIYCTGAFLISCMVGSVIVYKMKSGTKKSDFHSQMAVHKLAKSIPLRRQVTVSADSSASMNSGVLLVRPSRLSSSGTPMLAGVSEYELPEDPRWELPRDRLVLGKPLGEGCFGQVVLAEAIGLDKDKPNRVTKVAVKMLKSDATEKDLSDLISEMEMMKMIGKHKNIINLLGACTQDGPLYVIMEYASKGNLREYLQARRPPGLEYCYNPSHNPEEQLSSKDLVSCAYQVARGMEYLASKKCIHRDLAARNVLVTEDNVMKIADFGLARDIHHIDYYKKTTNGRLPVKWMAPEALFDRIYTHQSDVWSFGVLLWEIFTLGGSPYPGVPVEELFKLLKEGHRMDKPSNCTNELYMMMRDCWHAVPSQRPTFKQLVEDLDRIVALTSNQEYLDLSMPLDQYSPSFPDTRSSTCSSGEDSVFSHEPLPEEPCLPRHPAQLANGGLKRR
T9 sequence (Q9UM73 19-1620 G1202R): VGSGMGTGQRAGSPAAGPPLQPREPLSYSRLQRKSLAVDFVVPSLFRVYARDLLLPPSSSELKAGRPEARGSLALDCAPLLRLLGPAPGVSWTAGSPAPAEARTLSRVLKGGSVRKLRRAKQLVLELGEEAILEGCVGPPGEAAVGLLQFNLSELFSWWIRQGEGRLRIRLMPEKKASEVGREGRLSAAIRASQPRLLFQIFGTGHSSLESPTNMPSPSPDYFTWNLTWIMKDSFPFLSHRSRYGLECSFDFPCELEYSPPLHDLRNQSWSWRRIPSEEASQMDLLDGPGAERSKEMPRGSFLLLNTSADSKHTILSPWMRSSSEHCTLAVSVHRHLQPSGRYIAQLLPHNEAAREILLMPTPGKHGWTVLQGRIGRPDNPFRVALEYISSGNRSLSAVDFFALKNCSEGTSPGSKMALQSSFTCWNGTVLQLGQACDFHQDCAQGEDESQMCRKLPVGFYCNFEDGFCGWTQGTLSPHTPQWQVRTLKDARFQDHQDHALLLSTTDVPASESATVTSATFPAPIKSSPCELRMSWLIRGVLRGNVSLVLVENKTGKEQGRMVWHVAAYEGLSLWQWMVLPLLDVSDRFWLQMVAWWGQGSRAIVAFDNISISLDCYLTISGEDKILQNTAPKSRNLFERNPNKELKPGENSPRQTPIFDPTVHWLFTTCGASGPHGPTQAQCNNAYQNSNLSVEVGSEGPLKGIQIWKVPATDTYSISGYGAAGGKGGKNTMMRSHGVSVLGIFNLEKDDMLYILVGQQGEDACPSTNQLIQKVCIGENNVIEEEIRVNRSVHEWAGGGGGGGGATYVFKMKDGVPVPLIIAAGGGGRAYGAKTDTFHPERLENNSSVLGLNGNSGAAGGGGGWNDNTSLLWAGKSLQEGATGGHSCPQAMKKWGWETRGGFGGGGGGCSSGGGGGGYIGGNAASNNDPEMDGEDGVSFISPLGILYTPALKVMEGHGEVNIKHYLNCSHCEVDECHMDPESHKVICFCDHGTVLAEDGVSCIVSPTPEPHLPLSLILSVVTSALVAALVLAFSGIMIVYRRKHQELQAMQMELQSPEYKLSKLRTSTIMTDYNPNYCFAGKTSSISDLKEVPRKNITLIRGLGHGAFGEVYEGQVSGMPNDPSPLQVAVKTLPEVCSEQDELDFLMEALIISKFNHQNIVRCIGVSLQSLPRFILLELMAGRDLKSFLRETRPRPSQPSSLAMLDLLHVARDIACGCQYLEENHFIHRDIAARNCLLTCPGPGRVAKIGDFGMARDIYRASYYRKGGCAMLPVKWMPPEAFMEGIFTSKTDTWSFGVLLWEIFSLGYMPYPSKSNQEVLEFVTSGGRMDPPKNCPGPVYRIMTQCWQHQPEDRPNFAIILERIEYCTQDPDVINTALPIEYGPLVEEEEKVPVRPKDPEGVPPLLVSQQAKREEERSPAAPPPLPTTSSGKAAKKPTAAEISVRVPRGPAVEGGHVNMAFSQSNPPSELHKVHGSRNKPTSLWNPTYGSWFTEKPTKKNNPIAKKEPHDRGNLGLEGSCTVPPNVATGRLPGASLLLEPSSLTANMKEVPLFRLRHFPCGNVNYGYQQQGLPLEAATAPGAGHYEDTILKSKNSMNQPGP
T5 sequence (Q9UM73 19-1620): as the sequence (Q9UM73 19-1620 G1202R) above, with R1184G counted along it
T11 sequence (P21802 22-821): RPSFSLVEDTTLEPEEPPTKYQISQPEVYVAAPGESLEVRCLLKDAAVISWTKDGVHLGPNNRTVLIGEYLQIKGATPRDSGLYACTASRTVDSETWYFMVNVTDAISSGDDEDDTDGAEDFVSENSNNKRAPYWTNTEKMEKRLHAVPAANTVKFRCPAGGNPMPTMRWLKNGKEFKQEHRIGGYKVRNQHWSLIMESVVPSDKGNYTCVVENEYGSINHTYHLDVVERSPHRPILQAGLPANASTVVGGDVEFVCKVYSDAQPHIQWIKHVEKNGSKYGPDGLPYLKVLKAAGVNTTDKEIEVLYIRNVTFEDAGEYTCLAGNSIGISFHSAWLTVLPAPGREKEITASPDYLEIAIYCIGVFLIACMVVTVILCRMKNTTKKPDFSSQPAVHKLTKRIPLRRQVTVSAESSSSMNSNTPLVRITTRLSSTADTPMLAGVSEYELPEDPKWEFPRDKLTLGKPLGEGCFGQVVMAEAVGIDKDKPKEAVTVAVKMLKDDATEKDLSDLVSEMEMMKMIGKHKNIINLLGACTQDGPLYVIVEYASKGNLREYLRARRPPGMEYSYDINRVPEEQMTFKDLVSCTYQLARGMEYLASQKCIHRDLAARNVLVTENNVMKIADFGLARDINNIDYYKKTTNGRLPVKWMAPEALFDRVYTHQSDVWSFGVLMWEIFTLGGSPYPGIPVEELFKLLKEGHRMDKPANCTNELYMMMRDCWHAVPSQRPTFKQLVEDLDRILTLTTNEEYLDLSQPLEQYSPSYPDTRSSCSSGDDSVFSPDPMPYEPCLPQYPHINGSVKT
T3 sequence (P11362 22-822): as the sequence (P11362 22-822 V561M) above, with M540V counted along it
T6 sequence (P22607 23-806): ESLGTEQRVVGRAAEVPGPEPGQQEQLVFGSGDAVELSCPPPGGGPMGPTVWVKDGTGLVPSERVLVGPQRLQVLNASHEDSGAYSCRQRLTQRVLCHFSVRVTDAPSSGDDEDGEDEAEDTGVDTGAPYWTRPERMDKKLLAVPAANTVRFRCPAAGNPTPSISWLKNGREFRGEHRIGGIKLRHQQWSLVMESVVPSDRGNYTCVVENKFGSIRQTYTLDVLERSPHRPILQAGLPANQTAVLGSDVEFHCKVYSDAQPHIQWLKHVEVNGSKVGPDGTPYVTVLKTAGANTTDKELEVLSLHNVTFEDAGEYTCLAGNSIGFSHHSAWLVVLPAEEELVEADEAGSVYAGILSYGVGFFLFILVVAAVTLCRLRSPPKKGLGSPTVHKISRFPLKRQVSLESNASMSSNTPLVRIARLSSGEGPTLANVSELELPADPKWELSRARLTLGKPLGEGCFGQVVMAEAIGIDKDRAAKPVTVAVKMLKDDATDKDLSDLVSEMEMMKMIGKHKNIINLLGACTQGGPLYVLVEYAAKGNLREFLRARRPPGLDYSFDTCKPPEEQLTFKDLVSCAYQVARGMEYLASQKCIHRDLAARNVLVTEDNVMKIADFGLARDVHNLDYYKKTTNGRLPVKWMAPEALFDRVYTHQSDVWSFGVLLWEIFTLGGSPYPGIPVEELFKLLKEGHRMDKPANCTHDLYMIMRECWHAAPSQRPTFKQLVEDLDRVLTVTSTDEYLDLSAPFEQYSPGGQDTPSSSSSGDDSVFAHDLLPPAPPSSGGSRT
T2 sequence (Q9UM73 19-1620 L1196M): as the sequence (Q9UM73 19-1620 G1202R) above, with L1178M, R1184G counted along it

On to `C[C@@H]1COc2cn3ncc4c3nc2N1Cc1cc(F)cc(F)c1O[C@@H](C)CNC4=O` [Compound 7, (4R,12S)-8,10-difluoro-4,12-dimethyl-3,4,13,14-tetrahydro-6H-18,1-(metheno)[1,4]oxazino[3,4-i]pyrazolo[4,3-f][1,4,8,10]benzoxatriazacyclotridecin-15(12H)-one], for which the IC50 in the experiment with KM12 (TPM3-TRKA) turned out to be 0.2 nM; in the experiment on KG-1 cell (OP2-FGFR1) it was 145 nM; at BaF3 EML4-ALK, 18.6 nM; against ALK (L1196M), 0.358 nM; against FGFR1, 53 nM; at ROS1 it was 0.111 nM. Besides, the IC50 at ALK was 0.853 nM; at FGFR3, 30.5 nM; at ROS1 (G2032R), 0.678 nM; on FGFR4, 88.4 nM; against ALK (G1202R), 1.25 nM; against FGFR1(V561M), 137 nM. Moreover, the midpoint of inhibition against FGFR2, the IC50, lay at 14.7 nM.
